The values that follow are results of earlier work, collected in US20160000762A1, “IMPROVING COGNITIVE FUNCTION” (THE REGENTS OF THE UNIVERSITY OF CALIFORNIA, priority 2013, published 2016).

SMILES strings stand for the structures.

This data set has as its system Aβ. To be noted: after traumatic brain injury; Loane et al., 2009; cited from earlier work.

Consider `C[C@H](NC(=O)Cc1cc(F)cc(F)c1)C(=O)N[C@H](C(=O)OC(C)(C)C)c1ccccc1` [DAPT], for which the Aβ levels entry is “decreased” and the behavioral performance entry is recorded as “improved”.
